Experimental data from patent US8158681B2, “Nutraceutical and pharmaceutical compositions and use thereof for the treatment, co-treatment or prevention of inflammatory disorders” (DSM IP Assets B.V., priority 2006, dated 2012).

Legend:
Assay type in all cases: cell-based, murine
[1] = test system: nitric oxide (NO) production, RAW264.7; assay: Inhibition of nitric oxide production in LPS-stimulated RAW264.7 macrophages (Griess reaction); conditions: single compounds, RAW264.7, 1 μg/ml LPS, 24 hours
Method: (§1) Pure compounds were assayed in vitro in cellular systems. The inhibition of the synthesis of pro-inflammatory prostaglandins (PG) and of nitric oxide by the extracts or compounds was measured. PGE2 plays a critical role in the inflammation process, while nitric oxide (NO) is a hallmark of inflammation in various chronic inflammatory diseases including various forms of arthritis, gastrointestinal diseases and metabolic syndrome X.
(§2) The effects of extracts or compounds on the inflammatory response were tested in cellular assays using a murine macrophage indicator cell line, RAW264.7. The cells were purchased from ATCC (Manassas, Va., USA) and cultured in DMEM containing streptomycin/penicillin, non-essential amino acids and 10% fetal calf serum (FCS). In order to test a large range of concentration of compounds, cells (˜50′000/well) were seeded into flat-bottomed microtiter plates and cultured for one day. Cells were then starved in complete medium containing 0.25% FCS (D-025). After overnight culture, medium was removed and replaced by 100 μL of D-025 containing the test compounds at twice the final concentration. Subsequently, 100 μL of D-025 containing 2 μg/ml LPS was added (i.e. final LPS concentration of 1 μg/ml) and the cells cultured for 24 hours.
(§3) Compounds were usually tested in a concentration range from 0.2 to 50 μM in two-fold dilution steps. Extracts were tested in a range from 0.2-50 mg/L. All treatments were done in duplicates and several experimental series were done for each treatment. Concentrations of nitrite, which was rapidly formed from nitric oxide released by cells, were determined by the Griess reaction using sodium nitrite as standard. Briefly, 50 μl of supernatant was mixed with Griess reagent 1 (25 μL) and Griess reagent 2 (25 μL), centrifuged and the optical density at 540 nm determined. PGE2 secreted into the cell culture medium was determined by EIA obtained from Cayman Chemicals (Ann Harbor, Wis., USA) and used according to the manufacturer's instructions. All determinations were done in duplicates and at various dilutions of the culture supernatant. IC50 values were calculated using a […] least-square fitting equation [y=A+((B−A)/(1+((C−x)^D))] for best-fit curves (Excel fit software program).

[2] = test system: PGE2 production, RAW264.7; assay: Inhibition of PGE2 production in LPS-stimulated RAW264.7 macrophages (EIA); conditions: single compounds, RAW264.7, 1 μg/ml LPS, 24 hours
Method: as §1, §2, §3

[3] = test system: inducible nitric oxide synthase (iNOS) mRNA; assay: Expression of inflammatory genes in stimulated RAW 264.7 cells, quantitative RT-PCR: iNOS; conditions: RAW 264.7, 4 hours
Method: (§4) The effect of the compounds has also been evaluated on the level of the expression of genes that are involved in the inflammatory response. These comprise genes of the prostaglandin synthesis pathway, cytokines and chemokines or inducible nitric oxide synthase (iNOS). RAW 264.7 cells were stimulated in the presence of different concentrations of substances. After 4 hours, RNA was extracted and the expression of genes determined by quantitative RT-PCR as described (Richard, N., Porath, D., Radspieler, A. and Schwager, J. Effects of resveratrol, piceatannol, tri-acetoxystilbene, and genistein on the inflammatory response of human peripheral blood leukocytes. Mol Nutr Food Res 2005. 49: 431-442). […] Collectively, the results reveal significant effects of the compounds on the expression of distinct genes involved in the inflammatory response.

[4] = test system: matrix metalloproteinase 9 (MMP-9) mRNA; assay: Expression of inflammatory genes in stimulated RAW 264.7 cells, quantitative RT-PCR: MMP-9; conditions: RAW 264.7, 4 hours
Method: as §4

IL-1 alpha mRNA = assay: Expression of inflammatory genes in stimulated RAW 264.7 cells, quantitative RT-PCR: IL-1 alpha; conditions: 25 μM/L Amorfrutin A; RAW 264.7, 4 hours
Method: as §4

[5] = test system: interleukin-10 (IL-10) mRNA; assay: Expression of inflammatory genes in stimulated RAW 264.7 cells, quantitative RT-PCR: IL-10; conditions: RAW 264.7, 4 hours
Method: as §4

Row | SMILES | IC50 ([1]; Mus musculus) [µM] | IC50 ([2]; Mus musculus) [µM] | IC50 [1] [µM] | IC50 [2] [µM] | other results
1 | CCCCCc1cc(OC)c(CC=C(C)C)c(O)c1C(=O)O [2-hydroxy-4-methoxy-3-(3-methyl-2-butenyl)-6-pentyl-benzoic acid] | 10.9 ± 1.2 | > 50 | – | – | –
2 | COc1cc(CCc2ccccc2)c(C(=O)O)c(O)c1CC=C(C)C [Amorfrutin A (III), Amorfrutin A] | – | – | 7.1 ± 0.1 | 74.1 ± 12.1 | % expression of iNOS mRNA relative to cells stimulated with LPS only (=100%) ([3]; 25 μM/L Amorfrutin A): 52%; Effect on iNOS gene expression (in words) ([3]; RT-PCR): significantly reduced; % expression of MMP-9 mRNA relative to cells stimulated with LPS only (=100%) ([4]; 25 μM/L Amorfrutin A): 69%; Effect on MMP-9 gene expression (in words) ([4]; RT-PCR): significantly reduced; % expression of IL-1 alpha mRNA relative to cells stimulated with LPS only (=100%) (IL-1 alpha mRNA): 94%; % expression of IL-10 mRNA relative to cells stimulated with LPS only (=100%) ([5]; 25 μM/L Amorfrutin A): 22%; Effect on IL-10 gene expression (in words) ([5]; RT-PCR): significantly reduced
3 | C=C(C)C(O)Cc1c(OC)cc(CCCCC)c(C(=O)O)c1O (stereo not shown) [2-hydroxy-4-methoxy-3-(2-hydroxy-3-methyl-3-butenyl)-6-pentyl-benzoic acid] | 22.1 ± 1.6 | 18.9 ± 1.6 | – | – | –
4 | COc1cc(CCc2ccccc2)c(C(=O)O)c(O)c1C/C=C(\C)CCC=C(C)C [Amorfrutin B (II), Amorfrutin B] | – | – | 22.8 ± 4.1 | > 100 | –
5 | CCCCCc1cc(OC)c(C/C=C(\C)CCC=C(C)C)c(O)c1C(=O)O [Cannabigerolic acid monomethyl ether] | – | – | 31.3 ± 2.5 | 17.9 ± 11.6 | –
6 | C=C(C)C(O)Cc1c(OC)cc(CCc2ccccc2)c(C(=O)O)c1O (stereo not shown) [2-hydroxy-4-methoxy-3-(2-hydroxy-3-methyl-3-butenyl)-6-(2-phenylethyl)-benzoic acid] | 14.6 ± 0.3 | 40.7 ± 11.8 | – | – | –
